Molecular target: T1, squalene synthetase (Rattus norvegicus, UniProt Q02769)
T1 construct: from tissue; host or cells: rat liver microsomes (lovastatin-fed male Charles River CD rats)
T1 sequence (Q02769 1-416): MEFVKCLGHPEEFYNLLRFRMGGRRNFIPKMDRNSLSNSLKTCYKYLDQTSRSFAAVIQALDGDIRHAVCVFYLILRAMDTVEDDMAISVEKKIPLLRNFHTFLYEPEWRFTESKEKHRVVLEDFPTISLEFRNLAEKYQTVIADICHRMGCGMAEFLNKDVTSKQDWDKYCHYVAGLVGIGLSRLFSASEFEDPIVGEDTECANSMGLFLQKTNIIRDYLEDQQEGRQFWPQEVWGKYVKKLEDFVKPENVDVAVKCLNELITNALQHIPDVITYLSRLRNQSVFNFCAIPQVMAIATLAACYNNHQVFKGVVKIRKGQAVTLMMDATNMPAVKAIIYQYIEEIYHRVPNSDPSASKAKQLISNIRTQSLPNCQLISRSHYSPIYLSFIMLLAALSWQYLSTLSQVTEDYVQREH
Test: Squalene synthetase assay (rat liver microsomes, [4-14C]farnesyl-pyrophosphate)
Type: biochemical
Details: rat liver microsomal protein, 30° C., 20 minutes; read-out: IC50 squalene synthetase inhibition
Procedure: The intrinsic squalene synthetase inhibitory activity of representative compounds of this invention was measured by the standard in vitro protocol described below:
Male, Charles River CD rats (120 to 150 g) were fed a diet containing 0.1% lovastatin for 4 days. The livers from these rats were homogenized in 5 volumes (ml/g) of ice cold 50 Mm HEPES (4-(2-hydroxyethyl)-1-piperazine-ethanesulfonic acid), 5 mM EDTA(ethylenediaminetetraacetic acid) pH 7.5 with a Potter-Elvehjem type tissue grinder. The homogenate was centrifuged twice at 20,000×g for 15 minutes at 4,C, discarding the pellet each time. The supernatant was then centrifuged at 100,000×g for 1 hour at 4° C. The resulting microsomal pellet was resuspended in a volume of the above homogenizing buffer equal to one-fifth the volume of the original homogenate. This microsomal preparation has a protein concentration of about 7 mg/ml. The microsomal suspensions were stored in aliquots at -70° C. Squalene synthetase activity in these aliquots is stable for at least several months. […]
This assay mix was degassed under a vacuum and flushed with N2. […] Ten ml of scintillation fluid was added to the heptane solution and radioactivity was determined by liquid scintillation counting. […]
IC50 values were determined by plotting the log of the concentration of the test compound versus the percentage inhibition. […]

SMILES: C=C(CC[C@@]12C[C@@H](OC(=O)/C=C/C(C)CC(C)CC)[C@@](C(=O)O)(O1)[C@](O)(C(=O)O)[C@@H](C(=O)O)O2)C(OC(C)=O)C(C)Cc1ccccc1 (stereo partly shown) [Compound A]
- IC50: 0.95 nM

Reference: patent US5262435A, “Cholesterol lowering compounds” (Merck & Co., Inc., priority 1992, dated 1993)
